Experimental data reported in patent US20250179103A1, “6-OXODECAHYDROPYRROLO[1,2-A][1,5]DIAZOCINE AND 6-OXODECAHYDRO-4H-PYRROLO[2,1-D][1,5]THIAZOCINE DERIVATIVES AS STAT3 AND STAT6 MODULATORS FOR THE TREATMENT OF CANCER AND INFLAMMATORY CONDITIONS” (Recludix Pharma, Inc., priority 2022, published 2025).
pIC50: −log10 of the molar value.

What was measured:
[1] = biological target: T1, Recombinant STAT6 protein (STAT6(W123-T658)) (Homo sapiens, UniProt P42226); experiment: STAT6 Fluorescence Polarization (FP) Assay; type: binding; details: STAT6(W123-T658) 250 nM, probe 5-FAM-ApYKPFQDLI-NH2 2 nM, 45-minute incubation
T1 construct: Recombinant STAT6 protein (STAT6(W123-T658))
T1 sequence (P42226 123-658): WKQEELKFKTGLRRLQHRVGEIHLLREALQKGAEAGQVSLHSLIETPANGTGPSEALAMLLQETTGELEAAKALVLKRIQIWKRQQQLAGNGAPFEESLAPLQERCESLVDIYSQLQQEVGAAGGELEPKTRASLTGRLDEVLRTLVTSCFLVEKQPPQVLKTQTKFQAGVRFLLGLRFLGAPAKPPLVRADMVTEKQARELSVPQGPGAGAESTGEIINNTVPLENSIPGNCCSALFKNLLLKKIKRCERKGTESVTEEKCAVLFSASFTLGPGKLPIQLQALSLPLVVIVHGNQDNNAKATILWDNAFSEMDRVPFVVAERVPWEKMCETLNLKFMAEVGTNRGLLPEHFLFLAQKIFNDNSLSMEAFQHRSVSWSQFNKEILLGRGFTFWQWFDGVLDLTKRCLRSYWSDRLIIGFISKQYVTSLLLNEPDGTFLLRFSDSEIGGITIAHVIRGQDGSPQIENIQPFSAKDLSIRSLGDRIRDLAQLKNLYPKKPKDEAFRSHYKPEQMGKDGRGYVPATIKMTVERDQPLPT
Protocol: STAT6 Fluorescence Polarization (FP) Assay
An FP assay was developed to determine IC50 values for test substances. Recombinant STAT6 protein (STAT6(W123-T658)) at 250 nM was combined with a fluorescently labeled, phosphotyrosine peptide probe (5-FAM-ApYKPFQDLI-NH2) at 2 nM in FP buffer (10 mM HEPES pH 7.4, 50 mM NaCl, 1 mM EDTA, 0.05% Tween 20.2 mM DTT). 50 μL of STAT6-probe mixture was added to serial diluted compounds in black, 96-well plates (Greiner BioOne 655076) to a final concentration of 1% DMSO. Reaction components were mixed, and FP was measured after 45-minute incubation at room temperature using a Tecan Spark multimode plate reader. FP signal (mP) was plotted against the log concentration of the test substances and IC50 values were calculated by nonlinear regression analysis using GraphPad Prism software. For STAT6 FP assay, A=≤300 nM; B=>300-3000 nM; C=>3-30 μM; and D=>30 μM.

[2] = biological target: T2, Recombinant STAT3 protein (STAT3(G127-I722)) (Homo sapiens, UniProt P40763); experiment: STAT3 Fluorescence Polarization (FP) Assay; type: binding; details: STAT3(G127-I722) 25 nM, probe 5-FAM-GpYLPQTV-NH2 2 nM, 45-minute incubation
T2 construct: Recombinant STAT3 protein (STAT3(G127-I722))
T2 sequence (P40763 127-722): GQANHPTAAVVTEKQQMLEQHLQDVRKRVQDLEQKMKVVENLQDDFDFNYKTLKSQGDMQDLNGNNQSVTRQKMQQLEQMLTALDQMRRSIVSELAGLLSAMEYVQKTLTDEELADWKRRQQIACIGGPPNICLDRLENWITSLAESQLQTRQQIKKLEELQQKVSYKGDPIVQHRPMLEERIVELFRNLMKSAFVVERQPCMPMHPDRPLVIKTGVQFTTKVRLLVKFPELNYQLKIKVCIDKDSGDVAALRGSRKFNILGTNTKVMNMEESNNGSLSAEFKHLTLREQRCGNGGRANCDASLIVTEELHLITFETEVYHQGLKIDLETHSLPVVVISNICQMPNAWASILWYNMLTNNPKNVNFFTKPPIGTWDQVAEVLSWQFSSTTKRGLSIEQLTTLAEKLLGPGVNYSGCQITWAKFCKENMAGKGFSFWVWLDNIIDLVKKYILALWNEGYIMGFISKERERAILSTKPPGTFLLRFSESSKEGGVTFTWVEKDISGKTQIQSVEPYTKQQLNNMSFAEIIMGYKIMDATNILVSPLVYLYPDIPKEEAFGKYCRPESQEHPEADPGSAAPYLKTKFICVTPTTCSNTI
Protocol: STAT3 Fluorescence Polarization (FP) Assay
An FP assay was developed to determine IC50 values for test substances. Recombinant STAT3 protein (STAT3(G127-I722)) at 25 nM was combined with a fluorescently labeled, phosphotyrosine peptide probe (5-FAM-GpYLPQTV-NH2) at 2 nM in FP buffer (10 mM HEPES pH 7.4, 50 mM NaCl, 1 mM EDTA, 0.05% Tween 20.2 mM DTT). 50 μL of STAT3-probe mixture was added to serial diluted compounds in black, 96-well plates (Greiner BioOne 655076) to a final concentration of 1% DMSO. Reaction components were mixed, and FP was measured after 45-minute incubation at room temperature using a Tecan Spark multimode plate reader. FP signal (mP) was plotted against the log concentration of the test substances and IC50 values were calculated by nonlinear regression analysis using GraphPad Prism software. For STAT3 FP assay, A=≤100 nM; B=>100-1000 nM; C=>1-10 μM; and D=>10 μM.

Row | SMILES | pIC50 [1] | pIC50 [2]
1 | C[C@H](Cc1ccccc1)C(=O)N1CC[C@H]2CC[C@@H](C(=O)N3CCCC3)N2C(=O)[C@@H](NC(=O)c2cc3cc(C(F)(F)P(=O)(O)O)ccc3s2)C1 [Compound 259, (difluoro(2-(((5S,8S,10aR)-3-((R)-2-methyl-3-phenylpropanoyl)-6-oxo-8-(pyrrolidine-1-carbonyl)decahydropyrrolo[1,2-a][1,5]diazocin-5-yl)carbamoyl)benzo[b]thiophen-5-yl)methyl)phosphonic acid] | 5.52 to 6.52 | 6.00 to 7.00
2 | CC(=O)N1CC[C@H]2CC[C@@H](C(=O)N3C[C@H](c4ccccc4)[C@@H](C#N)C3)N2C(=O)[C@@H](NC(=O)c2cc3cc(C(F)(F)P(=O)(O)O)ccc3[nH]2)C1 (single isomer, unassigned) [Compound 138, ((2-(((5S,8S,10aR)-3-acetyl-8-((3R,4S or 3S,4R)-3-cyano-4-phenylpyrrolidine-1-carbonyl)-6-oxodecahydropyrrolo[1,2-a][1,5]diazocin-5-yl)carbamoyl)-1H-indol-5-yl)difluoromethyl)phosphonic acid] | ≥ 6.52 | 5.00 to 6.00
3 | CC(=O)N1CC[C@H]2CC[C@@H](C(=O)N(C)c3ccc4nnccc4c3)N2C(=O)[C@@H](NC(=O)c2ccc3cnc(C(F)(F)P(=O)(O)O)cc3c2)C1 [Compound 119, ((6-(((5S,8S,10aR)-3-acetyl-8-(cinnolin-6-yl(methyl)carbamoyl)-6-oxodecahydropyrrolo[1,2-a][1,5]diazocin-5-yl)carbamoyl)isoquinolin-3-yl)difluoromethyl)phosphonic acid] | 5.52 to 6.52 | < 5.00
4 | CC(=O)N1CC[C@H]2CC[C@@H](C(=O)N[C@H]3CN(S(C)(=O)=O)C[C@@H]3O)N2C(=O)[C@@H](NC(=O)c2cc3cc(C(F)(F)P(=O)(O)O)ccc3s2)C1 [Compound 6, ((2-(((5S,8S,10aR)-3-acetyl-8-(((3S,4S)-4-hydroxy-1-(methylsulfonyl)pyrrolidin-3-yl)carbamoyl)-6-oxodecahydropyrrolo[1,2-a][1,5]diazocin-5-yl)carbamoyl)benzo[b]thiophen-5-yl)difluoromethyl)phosphonic Acid] | 5.52 to 6.52 | 5.00 to 6.00
5 | CC(=O)N1CC[C@H]2CC[C@@H](C(=O)N3C[C@@H](C#N)[C@H](c4cccnc4)C3)N2C(=O)[C@@H](NC(=O)c2cc3cc(C(F)(F)P(=O)(O)O)ccc3s2)C1 (relative stereo) [Compound 150, ((2-(((5S,8S,10aR)-3-acetyl-8-((rel-trans)-3-cyano-4-(pyridin-3-yl)pyrrolidine-1-carbonyl)-6-oxodecahydropyrrolo[1,2-a][1,5]diazocin-5-yl)carbamoyl)benzo[b]thiophen-5-yl)difluoromethyl)phosphonic acid] | ≥ 6.52 | 6.00 to 7.00
6 | CC(=O)N1CC[C@H]2CC[C@@H](C(=O)N(C)c3ccc4nnccc4c3)N2C(=O)[C@@H](NC(=O)c2cc3cc(C(F)(F)P(=O)(O)O)ccc3s2)C1 [Compound 191, ((2-(((5S,8S,10aR)-3-acetyl-8-(cinnolin-6-yl(methyl)carbamoyl)-6-oxodecahydropyrrolo[1,2-a][1,5]diazocin-5-yl)carbamoyl)benzo[b]thiophen-5-yl)difluoromethyl)phosphonic acid] | ≥ 6.52 | 6.00 to 7.00
7 | CC(=O)N1CC[C@H]2CC[C@@H](C(=O)N(C)c3ccccc3)N2C(=O)[C@@H](NC(=O)c2cc3cc(C(C)(F)P(=O)(O)O)ccc3s2)C1 (stereo partly drawn) [Compound 18, (1-(2-(((5S,8S,10aR)-3-acetyl-8-(methyl(phenyl)carbamoyl)-6-oxodecahydropyrrolo[1,2-a][1,5]diazocin-5-yl)carbamoyl)benzo[b]thiophen-5-yl)-1-fluoroethyl)phosphonic acid] | 4.52 to 5.52 | < 5.00
8 | O=C(N[C@H]1CSCC[C@H]2CC[C@@H](C(=O)N3CC(c4cccnc4)C3)N2C1=O)c1cc2cc(C(F)(F)P(=O)(O)O)ccc2s1 [Compound 405, (difluoro(2-(((5R,8S, 10aR)-6-oxo-8-(3-(pyridin-3-yl)azetidine-1-carbonyl)octahydro-4H-pyrrolo[2,1-d][1,5]thiazocin-5-yl)carbamoyl)benzo[b]thiophen-5-yl)methyl) phosphonic acid] | 4.52 to 5.52 | ≥ 7.00
9 | CC(=O)N1CC[C@H]2CC[C@@H](C(=O)Nc3ccc(-c4ccccc4)c([N+](=O)[O-])c3)N2C(=O)[C@@H](NC(=O)c2cc3cc(C(F)(F)P(=O)(O)O)ccc3s2)C1 [Compound 179, ((2-(((5S,8S,10aR)-3-acetyl-8-((2-nitro-[1,1′-biphenyl]-4-yl)carbamoyl)-6-oxodecahydropyrrolo[1,2-a][1,5]diazocin-5-yl)carbamoyl)benzo[b]thiophen-5-yl)difluoromethyl)phosphonic acid] | 5.52 to 6.52 | 6.00 to 7.00
10 | O=C(N[C@H]1CN(C(=O)NCC23CCN(CC2)CC3)CC[C@H]2CC[C@@H](C(=O)N3CC(c4cccnc4)C3)N2C1=O)c1cc2cc(C(F)(F)P(=O)(O)O)ccc2s1 [Compound 401, (difluoro(2-(((5S,8S, 10aR)-6-oxo-8-(3-(pyridin-3-yl)azetidine-1-carbonyl)-3-((quinuclidin-4-ylmethyl)carbamoyl)decahydropyrrolo [1,2-a][1,5]diazocin-5-yl)carbamoyl)benzo[b]thiophen-5-yl)methyl) phosphonic acid] | 4.52 to 5.52 | ≥ 7.00
11 | CC(=O)N1CC[C@H]2CC[C@@H](C(=O)N3CC(Oc4ccccc4)C3)N2C(=O)[C@@H](NC(=O)c2cc3cc(C(F)(F)P(=O)(O)O)ccc3[nH]2)C1 [Compound 99, ((2-(((5S,8S,10aR)-3-acetyl-6-oxo-8-(3-phenoxyazetidine-1-carbonyl)decahydropyrrolo[1,2-a][1,5]diazocin-5-yl)carbamoyl)-1H-indol-5-yl)difluoromethyl)phosphonic acid] | 5.52 to 6.52 | 6.00 to 7.00
12 | Cc1ccc2onc(C(=O)N3CC[C@H]4CC[C@@H](C(=O)N5C[C@@H](c6ccn(C)c(=O)c6)CC56CC6)N4C(=O)[C@@H](NC(=O)c4ccc5ccc([C@@H](F)P(=O)(O)O)cc5c4)C3)c2c1 [Compound 380, ((S)-fluoro(7-(((5S,8S, 10aR)-8-((R)-6-(1-methyl-2-oxo-1,2-dihydropyridin-4-yl)-4-azaspiro[2.4]heptane-4-carbonyl)-3-(5-methylbenzo[d]isoxazole-3-carbonyl)-6-oxodecahydropyrrolo [1,2-a][1,5]diazocin-5-yl)carbamoyl)naphthalen-2-yl)methyl)phosphonic acid] | ≥ 6.52 | < 5.00
13 | CNC(=O)[C@@H]1CC[C@@H]2CCN(Cc3ccn4ccnc4c3)C[C@H](NC(=O)c3cc4cc(C(F)(F)P(=O)(O)O)ccc4s3)C(=O)N21 [Compound 272, (difluoro(2-(((5S,8S,10aR)-3-(imidazo[1,2-a]pyridin-7-ylmethyl)-8-(methylcarbamoyl)-6-oxodecahydropyrrolo[1,2-a][1,5]diazocin-5-yl)carbamoyl)benzo[b]thiophen-5-yl)methyl)phosphonic acid] | 4.52 to 5.52 | ≥ 7.00
14 | CC(=O)N1CC[C@H]2CC[C@@H](C(=O)N(C)c3ccccc3)N2C(=O)[C@@H](NC(=O)c2cc3cc(C(F)P(=O)(O)O)ccc3s2)C1 (stereo partly drawn) [Compound 22, ((2-(((5S,8S,10aR)-3-acetyl-8-(methyl(phenyl)carbamoyl)-6-oxodecahydropyrrolo[1,2-a][1,5]diazocin-5-yl)carbamoyl)benzo[b]thiophen-5-yl)fluoromethyl)phosphonic acid] | 5.52 to 6.52 | < 5.00
